Results published in patent US20130281467A1, “NOVEL MICROBICIDES” (SYNGENTA PARTICIPATIONS AG, priority 2010, published 2013).

Key:
[1] = system: Blumeria graminis f. Sp. tritici (Erysiphe graminis f. sp. tritici); test: Fungicidal activity against Blumeria graminis f. sp. tritici / wheat / leaf disc preventative (powdery mildew on wheat); type: in vivo; details: foliar, wheat leaf segments, inoculated 1 day after application, compared to untreated, read-out: disease control
Protocol: Fungicidal Activity Against Blumeria graminis f. Sp. tritici (Erysiphe graminis f. sp. tritici)/Wheat/Leaf Disc Preventative (Powdery Mildew on Wheat)
Wheat leaf segments cv. Kanzler were placed on agar in a multiwell plate (24-well format) and sprayed with the formulated test compound diluted in water. The leaf disks were inoculated by shaking powdery mildew infected plants above the test plates 1 day after application. The inoculated leaf disks were incubated at 20° C. and 60% rh under a light regime of 24 h darkness followed by 12 h light/12 h darkness in a climate chamber and the activity of a compound was assessed as percent disease control compared to untreated when an appropriate level of disease damage appears on untreated check leaf segments (6-8 days after application).

Gaeumannomyces graminis = test: Fungicidal activity against Gaeumannomyces graminis / liquid culture (take-all of cereals); type: cell-based; details: 4-5 days after application, read-out: disease control (inhibition of growth, photometrically)
Protocol: Fungicidal Activity Against Gaeumannomyces graminis/Liquid Culture (Take-all of Cereals) Mycelial fragments of the fungus from cryogenic storage were directly mixed into nutrient broth (PDB potato dextrose broth). After placing a (DMSO) solution of test compound into a microtiter plate (96-well format), the nutrient broth containing the fungal spores iss added. The test plates were incubated at 24° C. and the inhibition of growth was determined photometrically 4-5 days after application.

[2] = system: Glomerella lagenarium (Colletotrichum lagenarium); test: Fungicidal activity against Glomerella lagenarium (Colletotrichum lagenarium) / liquid culture (anthracnose); type: cell-based; details: Colletotrichum orbiculare, 3-4 days after application, read-out: disease control (inhibition of growth, photometrically)
Protocol: Fungicidal Activity Against Glomerella lagenarium (Colletotrichum lagenarium)/Liquid Culture (Anthracnose) Conidia of the fungus from cryogenic storage were directly mixed into nutrient broth (PDB potato dextrose broth). After placing a (DMSO) solution of test compound into a microtiter plate (96-well format), the nutrient broth containing the fungal spores was added. The test plates were incubated at 24° C. and the inhibition of growth was measured photometrically 3-4 days after application.

[3] = system: Mycosphaerella arachidis (Cercospora arachidicola); test: Fungicidal activity against Mycosphaerella arachidis (Cercospora arachidicola) / liquid culture (early leaf spot); type: cell-based; details: 4-5 days after application, read-out: disease control (inhibition of growth, photometrically)
Protocol: Fungicidal Activity Against Mycosphaerella arachidis (Cercospora arachidicola)/Liquid Culture (Early Leaf Spot) Conidia of the fungus from cryogenic storage were directly mixed into nutrient broth (PDB potato dextrose broth). After placing a (DMSO) solution of test compound into a microtiter plate (96-well format), the nutrient broth containing the fungal spores was added. The test plates were incubated at 24° C. and the inhibition of growth was determined photometrically 4-5 days after application.

[4] = system: Mycosphaerella graminicola (Septoria tritici); test: Fungicidal activity against Mycosphaerella graminicola (Septoria tritici) / liquid culture (Septoria blotch); type: cell-based; details: Zymoseptoria tritici, 4-5 days after application, read-out: disease control (inhibition of growth, photometrically)
Protocol: Fungicidal Activity Against Mycosphaerella graminicola (Septoria tritici)/Liquid Culture (Septoria Blotch) Conidia of the fungus from cryogenic storage were directly mixed into nutrient broth (PDB potato dextrose broth). After placing a (DMSO) solution of test compound into a microtiter plate (96-well format), the nutrient broth containing the fungal spores was added. The test plates were incubated at 24° C. and the inhibition of growth was determined photometrically 4-5 days after application.

[5] = system: Phaeosphaeria nodorum (Septoria nodorum); test: Fungicidal activity against Phaeosphaeria nodorum (Septoria nodorum) / wheat / leaf disc preventative (glume blotch); type: in vivo; details: Parastagonospora nodorum, foliar, wheat leaf segments, inoculated 2 days after application, compared to untreated, read-out: disease control
Protocol: Fungicidal Activity Against Phaeosphaeria nodorum (Septoria nodorum)/Wheat/Leaf Disc Preventative (Glume Blotch) Wheat leaf segments cv. Kanzler were placed on agar in a multiwell plate (24-well format) and sprayed with the formulated test compound diluted in water. The leaf disks were inoculated with a spore suspension of the fungus 2 days after application. The inoculated test leaf disks were incubated at 20° C. and 75% rh under a light regime of 12 h light/12 h darkness in a climate cabinet and the activity of a compound was assessed as percent disease control compared to untreated when an appropriate level of disease damage appears in untreated check leaf disks (5-7 days after application).

[6] = system: Puccinia recondita f. sp. tritici; test: Fungicidal activity against Puccinia recondita f. sp. tritici / wheat / leaf disc preventative (brown rust); type: in vivo; details: foliar, wheat leaf segments, inoculated 1 day after application, compared to untreated, read-out: disease control
Protocol: Fungicidal Activity Against Puccinia recondita f. sp. tritici/Wheat/Leaf Disc Preventative (Brown Rust) Wheat leaf segments cv. Kanzler were placed on agar in multiwell plates (24-well format) and sprayed with the formulated test compound diluted in water. The leaf disks were inoculated with a spore suspension of the fungus 1 day after application. The inoculated leaf segments were incubated at 19° C. and 75% rh under a light regime of 12 h light/12 h darkness in a climate cabinet and the activity of a compound was assessed as percent disease control compared to untreated when an appropriate level of disease damage appears in untreated check leaf segments (7-9 days after application).

Pyrenophora teres = test: Fungicidal activity against Pyrenophora teres / barley / leaf disc preventative (net blotch); type: in vivo; details: foliar, barley leaf segments, inoculated 2 days after application, compared to untreated, read-out: disease control
Protocol: Fungicidal Activity Against Pyrenophora teres/Barley/Leaf Disc Preventative (Net Blotch) Barley leaf segments cv. Hasso were placed on agar in a multiwell plate (24-well format) and sprayed with the formulated test compound diluted in water. The leaf segments were inoculated with a spore suspension of the fungus 2 days after application. The inoculated leaf segments were incubated at 20° C. and 65% rh under a light regime of 12 h light/12 h darkness in a climate cabinet and the activity of a compound was assessed as disease control compared to untreated when an appropriate level of disease damage appears in untreated check leaf segments (5-7 days after application).

[7] = system: Thanatephorus cucumeris (Rhizoctonia solani); test: Fungicidal activity against Thanatephorus cucumeris (Rhizoctonia solani) / liquid culture (foot rot, damping-off); type: cell-based; details: 3-4 days after application, read-out: disease control (inhibition of growth, photometrically)
Protocol: Fungicidal Activity Against Thanatephorus cucumeris (Rhizoctonia solani)/Liquid Culture (Foot Rot, Damping-Off) Mycelia fragments of a newly grown liquid culture of the fungus were directly mixed into nutrient broth (PDB potato dextrose broth). After placing a (DMSO) solution of the test compounds into a microtiter plate (96-well format), the nutrient broth containing the fungal material was added. The test plates were incubated at 24° C. and the inhibition of growth was determined photometrically 3-4 days after application.

[8] = system: Botryotinia fuckeliana (Botrytis cinerea); test: Fungicidal activity against Botryotinia fuckeliana (Botrytis cinerea) / liquid culture (gray mould); type: cell-based; details: 3-4 days after application, read-out: disease control (inhibition of growth, photometrically)
Protocol: Fungicidal Activity Against Botryotinia fuckeliana (Botrytis cinerea)/Liquid Culture (Gray Mould) Conidia of the fungus from cryogenic storage were directly mixed into nutrient broth (Vogels broth). After placing a (DMSO) solution of test compound into a microtiter plate (96-well format), the nutrient broth containing the fungal spores was added. The test plates were incubated at 24° C. and the inhibition of growth was determined photometrically 3-4 days after application.

[9] = system: Monographella nivalis (Microdochium nivale); test: Fungicidal activity against Monographella nivalis (Microdochium nivale) / liquid culture (foot rot cereals); type: cell-based; details: 4-5 days after application, read-out: disease control (inhibition of growth, photometrically)
Protocol: Fungicidal Activity Against Monographella nivalis (Microdochium nivale)/Liquid Culture (Foot Rot Cereals) Conidia of the fungus from cryogenic storage were directly mixed into nutrient broth (PDB potato dextrose broth). After placing a (DMSO) solution of test compound into a microtiter plate (96-well format), the nutrient broth containing the fungal spores was added. The test plates were incubated at 24° C. and the inhibition of growth was determined photometrically 4-5 days after application.

Cc1cccc(Cc2cccc(-c3ncc4c(n3)CCCCC4)n2)c1 [Compound 31]
≥ 80%: pest or weed control at 200 ppm [1] | inhibition at 200 ppm (Gaeumannomyces graminis) | inhibition at 200 ppm [2] | inhibition at 200 ppm [3] | inhibition at 200 ppm [4] | pest or weed control at 200 ppm [5] | pest or weed control at 200 ppm [6] | pest or weed control at 200 ppm (Pyrenophora teres) | inhibition at 200 ppm [7]

Cc1ccc(Cc2cccc(-c3ncc4c(n3)CC(C)(C)CC4)n2)cc1 [Compound 36]
≥ 80%: pest or weed control at 200 ppm [1] | inhibition at 200 ppm [8] | inhibition at 200 ppm (Gaeumannomyces graminis) | inhibition at 200 ppm [2] | inhibition at 200 ppm [9] | inhibition at 200 ppm [3] | inhibition at 200 ppm [4] | pest or weed control at 200 ppm [5] | pest or weed control at 200 ppm (Pyrenophora teres) | inhibition at 200 ppm [7]

COc1ccc(C(C)c2cccc(-c3ncc4c(n3)CC(C)(C)CC4)n2)cn1 (stereo not shown) [Compound 43]
≥ 80%: pest or weed control at 200 ppm [1] | inhibition at 200 ppm [8] | inhibition at 200 ppm (Gaeumannomyces graminis) | inhibition at 200 ppm [2] | inhibition at 200 ppm [9] | inhibition at 200 ppm [3] | inhibition at 200 ppm [4] | pest or weed control at 200 ppm [5] | pest or weed control at 200 ppm (Pyrenophora teres)

CO/N=C1\CCCc2nc(-c3cccc(Cc4ccccc4OC)n3)ncc21 [Compound 27]
≥ 80%: pest or weed control at 200 ppm [1] | inhibition at 200 ppm [8] | inhibition at 200 ppm (Gaeumannomyces graminis) | inhibition at 200 ppm [2] | inhibition at 200 ppm [9] | inhibition at 200 ppm [3] | inhibition at 200 ppm [4] | pest or weed control at 200 ppm [5] | pest or weed control at 200 ppm [6] | pest or weed control at 200 ppm (Pyrenophora teres)

CO/N=C1\CC(C)(C)Cc2nc(-c3cccc(Cc4ccccc4)n3)ncc21 [Compound 23]
≥ 80%: inhibition at 200 ppm [8] | inhibition at 200 ppm (Gaeumannomyces graminis) | inhibition at 200 ppm [2] | inhibition at 200 ppm [9] | inhibition at 200 ppm [3] | inhibition at 200 ppm [4]

COc1ccc(Cc2cccc(-c3ncc4c(n3)CCCCC4)n2)cn1 [Compound 39, 2-[6-(6-Methoxy-pyridin-3-ylmethyl)-pyridin-2-yl]-6,7,8,9-tetrahydro-5H-cycloheptapyrimidine]
≥ 80%: pest or weed control at 200 ppm [1] | inhibition at 200 ppm (Gaeumannomyces graminis) | inhibition at 200 ppm [2] | inhibition at 200 ppm [3] | inhibition at 200 ppm [4] | pest or weed control at 200 ppm [5] | pest or weed control at 200 ppm [6] | pest or weed control at 200 ppm (Pyrenophora teres)

CO/N=C1\CCCc2nc(-c3cccc(Cc4ccccc4Cl)n3)ncc21 [Compound 24]
≥ 80%: inhibition at 200 ppm [8] | inhibition at 200 ppm (Gaeumannomyces graminis) | inhibition at 200 ppm [2] | inhibition at 200 ppm [9] | inhibition at 200 ppm [3] | inhibition at 200 ppm [4] | pest or weed control at 200 ppm [5] | pest or weed control at 200 ppm [6] | inhibition at 200 ppm [7]
